Consider four compounds from patent US8895504B2, “Amylin derivatives” (priority 2008, dated 2014).

Series [1] has as its target T1, Amylin 3(a) receptor (human calcitonin receptor (CTa) and RAMP-3) (Homo sapiens, UniProt O60896+P30988).
T1 construct: expressed in transfected cells; host or cells: BHK570 cells, stably transfected with a CRE-luciferase reporter
The series can be described thus: Luciferase assay (III), BHK Amylin 3(a)//CRE-luc cells. Format: cell-based. The note with it: BHK cells with Amylin 3(a) receptor and CRE luciferase reporter, 4 hours incubation; read-out: Potency Luciferase. In outline: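 Read-out is CRE-driven luciferase luminescence, taken 30 min after LucLite addition at room temperature. Compounds were incubated 4 h at 37° C in assay medium (10% FBS, 10 mM Hepes, pH 7,4). The cell line is BHK570 co-transfected with human calcitonin receptor CTa and RAMP-3, seeded overnight before use.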
For orientation: A reporter such as luciferase makes a cellular process visible.

A short description of series [2]: Assay (V) PK - determination of T½ in mini-pig. Format: in vivo. Particulars: minipig, sc, terminal plasma half-life, subcutaneous, approx 2 nmol/kg, male Göttingen mini-pigs. In outline:
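Male Göttingen mini-pigs (5–12 months, 7–35 kg) got a single s.c. neck injection of approx 2 nmol/kg; plasma sampled via central venous catheter predose to 240 h (some to 288 h). Amylin measured by sandwich ELISA; T½ = ln 2/λz from non-compartmental analysis of individual profiles.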

The nature of series [3]: Assay (VI) PK - determination of T½ in rat. Format: in vivo. The note with it: sc, terminal plasma half-life, subcutaneous, approx 20 nmol/kg, male Sprague Dawley rats. As for the experimental part:
Assay (VI) PK—Determination OF T½ in Rat
T½ is the terminal half-life=ln 2/λz of a compound in plasma. λz is the first order rate constant associated with the terminal (log-linear) portion of the plasma concentration-time curve and is estimated by linear regression of time vs. log concentration.
T½ values of the amylin analogues of the invention is determined by pharmacokinetic studies in Sprague Dawley male rats, from Taconic Europe and the principles of laboratory animal care are followed.
An acclimatization period of approximately 7 days was allowed before the animals entered the study. At start of the acclimatization period the rats were in the weight range of 300-400 g. The rats had permanent catheters inserted in a. carotis which were used for blood sampling.
The studies were conducted in an animal room which was illuminated to give a cycle of approx 12 hours light and 12 hours darkness. The animals were housed individually due to the catheters and had food and water ad lib. The animals were weighed on the days of dosing.
In the present studies the test substances were administered subcutaneously in approx 20 nmol/kg dose. The animals received a single subcutaneous injection to the neck using a 25 G needle with syringe. Each test substance was given to typically three but in some cases two or four animals.
A full plasma concentration-time profile, employing 8-10 sampling points, was obtained from each animal. In example blood samples were collected according to the following schedule:
After subcutaneous administration:
Predose (0), 0.5, 1, 1.5, 2, 4, 6, 12, 24, 48 and 72 hours after injection. At each sampling time, 0.08 to 0.10 ml of blood was drawn from each animal. The blood samples were taken via the catheter.
The blood samples were collected into EDTA test tubes. Blood samples were kept on ice for max 20 min. before centrifugation. Plasma was separated using centrifugation (i.e. at 4° C., 10 min., 1500 G) and was immediately transferred to Micronic tubes or PCR plates. Approximately 40 μl plasma was transferred and was stored at −20° C. until assayed. The plasma samples were assayed for the content of amylin using an ELISA assay.
The plasma concentration-time profiles were analysed by a non-compartmental pharmacokinetic analysis (NCA) using WinNonlin Professional 5.0 (Pharsight Inc., Mountain View, Calif., USA). NCA was performed using the individual plasma concentration-time profiles from each animal. T½ is the terminal half-life=ln 2/λz and was determined from λz, the first order rate constant associated with the terminal (log-linear) portion of the curve, estimated by linear regression of time vs. log concentration.
ELISA Plasma Assay for Amylin Quantification
The human amylin ELISA is a monoclonal antibody-based sandwich immunoassay for determining amylin levels in human plasma. The capture antibody recognizes human amylin, amylin acid (deamidated amylin), a 1-20 fragment of amylin, but not reduced amylin. The detection antibody binds to reduced or unreduced human amylin but not amylin acid and is complexed with streptavidin-alkaline phosphatase. The substrate, 4-methylumbelliferyl phosphate, is applied to the completed sandwich and the fluorescent signal, monitored at 355 nm/460 nm, is proportional to the amount of amylin present in the sample.

SMILES strings stand for the structures. *1 amine or outer side, *2 acyl side, *3 side chain or, on linkers, in order; H or OH if unused. Where a SMILES comes first, the peptide text is derived from it. Bridges are numbered along the chain shown (N, C = ends). The star is where a group is joined. C20 diacid = O=C(O)CCCCCCCCCCCCCCCCCCC(=O)*; C18 diacid = O=C(O)CCCCCCCCCCCCCCCCC(=O)*; γGlu = O=C(O)[C@H](CCC(=O)[*:2])N[*:1]

T1 sequence (O60896 24-148): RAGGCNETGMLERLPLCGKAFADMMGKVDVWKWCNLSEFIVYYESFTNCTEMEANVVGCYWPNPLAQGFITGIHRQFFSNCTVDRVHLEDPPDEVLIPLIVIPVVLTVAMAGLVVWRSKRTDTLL
T1 sequence (P30988 25-474): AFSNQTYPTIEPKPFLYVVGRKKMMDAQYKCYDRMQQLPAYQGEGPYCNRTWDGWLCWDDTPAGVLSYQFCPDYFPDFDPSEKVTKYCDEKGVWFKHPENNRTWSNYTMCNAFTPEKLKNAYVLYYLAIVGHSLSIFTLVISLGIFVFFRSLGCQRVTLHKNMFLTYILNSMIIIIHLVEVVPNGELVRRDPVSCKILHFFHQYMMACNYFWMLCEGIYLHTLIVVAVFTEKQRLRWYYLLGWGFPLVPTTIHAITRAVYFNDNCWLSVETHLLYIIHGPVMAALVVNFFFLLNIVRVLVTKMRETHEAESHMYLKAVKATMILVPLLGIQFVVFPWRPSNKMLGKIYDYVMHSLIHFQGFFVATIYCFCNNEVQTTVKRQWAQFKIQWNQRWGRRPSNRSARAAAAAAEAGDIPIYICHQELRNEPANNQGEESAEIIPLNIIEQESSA

Take `CC[C@H](C)[C@H](NC(=O)[C@@H]1CCCN1C(=O)CNC(=O)[C@H](Cc1ccccc1)NC(=O)[C@H](CC(N)=O)NC(=O)[C@H](CC(N)=O)NC(=O)[C@H](CO)NC(=O)[C@H](CO)NC(=O)[C@H](Cc1c[nH]cn1)NC(=O)[C@H](Cc1c[nH]cn1)NC(=O)[C@H](CC(C)C)NC(=O)[C@H](Cc1ccccc1)NC(=O)[C@H](CC(N)=O)NC(=O)[C@H](C)NC(=O)[C@H](CC(C)C)NC(=O)[C@H](CCCNC(=N)N)NC(=O)[C@H](CCC(N)=O)NC(=O)[C@@H](NC(=O)[C@H](C)NC(=O)[C@@H]1CSSC[C@H](NC(=O)[C@H](CCCCN)NC(=O)CC[C@H](NC(=O)CCCCCCCCCCCCCCCCCCC(=O)O)C(=O)O)C(=O)N[C@@H](CC(N)=O)C(=O)N[C@@H]([C@@H](C)O)C(=O)N[C@@H](C)C(=O)N[C@@H]([C@@H](C)O)C(=O)N1)[C@@H](C)O)C(=O)N[C@@H](CC(C)C)C(=O)N1CCC[C@H]1C(=O)N1CCC[C@H]1C(=O)N[C@H](C(=O)N[C@@H](CC(N)=O)C(=O)N[C@H](C(=O)NCC(=O)N[C@@H](CO)C(=O)N[C@@H](CC(N)=O)C(=O)N[C@H](C(=O)N[C@@H](Cc1ccc(O)cc1)C(N)=O)[C@@H](C)O)C(C)C)[C@@H](C)O` [Example 5, N-alpha-[(S)-4-Carboxy-4-(19-carboxynonadecanoylamino)butyryl]-[His17]-pramlintide] ({C20 diacid-γGlu}-KCNTATCATQRLANFLHHSSNNFGPILPPTNVGSNTY-NH2; disulfide 2-7): the EC50 in series [1] is 0.1 nM. For the same compound, the half-life (commonly the time needed for the level to fall by half in the phase considered) was 70 h in series [2] (in vivo) and 16 h in series [3] (in vivo).
With `CC[C@H](C)[C@H](NC(=O)[C@@H]1CCCN1C(=O)CNC(=O)[C@H](Cc1ccccc1)NC(=O)[C@H](CC(N)=O)NC(=O)[C@H](CC(N)=O)NC(=O)[C@H](CO)NC(=O)[C@H](CO)NC(=O)[C@H](Cc1c[nH]cn1)NC(=O)[C@H](Cc1c[nH]cn1)NC(=O)[C@H](CC(C)C)NC(=O)[C@H](Cc1ccccc1)NC(=O)[C@H](CC(N)=O)NC(=O)[C@H](C)NC(=O)[C@H](CC(C)C)NC(=O)[C@H](CCCNC(=N)N)NC(=O)[C@H](CCC(N)=O)NC(=O)[C@@H](NC(=O)[C@H](C)NC(=O)[C@@H]1CSSC[C@H](NC(=O)CC[C@H](NC(=O)CCCCCCCCCCCCCCCCC(=O)O)C(=O)O)C(=O)N[C@@H](CC(N)=O)C(=O)N[C@@H]([C@@H](C)O)C(=O)N[C@@H](C)C(=O)N[C@@H]([C@@H](C)O)C(=O)N1)[C@@H](C)O)C(=O)N[C@@H](CC(C)C)C(=O)N1CCC[C@H]1C(=O)N1CCC[C@H]1C(=O)N[C@H](C(=O)N[C@@H](CC(N)=O)C(=O)N[C@H](C(=O)NCC(=O)N[C@@H](CO)C(=O)N[C@@H](CC(N)=O)C(=O)N[C@H](C(=O)N[C@@H](Cc1ccc(O)cc1)C(N)=O)[C@@H](C)O)C(C)C)[C@@H](C)O` [Example 10, N-alpha-[(S)-4-Carboxy-4-(17-carboxyheptadecanoylamino)butyryl]-[His17]-pramlintide (2-37)] ({C18 diacid-γGlu}-CNTATCATQRLANFLHHSSNNFGPILPPTNVGSNTY-NH2; disulfide 1-6), the EC50 in series [1] worked out at 0.08 nM. The half-life in series [2] is 66 h; in series [3], 11 h.
On the same counts, the results for `CC[C@H](C)[C@H](NC(=O)[C@@H]1CCCN1C(=O)CNC(=O)[C@H](Cc1ccccc1)NC(=O)[C@H](CC(N)=O)NC(=O)[C@H](CC(N)=O)NC(=O)[C@H](CO)NC(=O)[C@H](CO)NC(=O)[C@H](Cc1c[nH]cn1)NC(=O)[C@H](CO)NC(=O)[C@H](CC(C)C)NC(=O)[C@H](Cc1ccccc1)NC(=O)[C@H](CC(N)=O)NC(=O)[C@H](C)NC(=O)[C@H](CC(C)C)NC(=O)[C@H](CCCNC(=N)N)NC(=O)[C@H](CCC(N)=O)NC(=O)[C@@H](NC(=O)[C@H](C)NC(=O)[C@@H]1CSSC[C@H](NC(=O)[C@H](CCCCN)NC(=O)[C@H](CCCNC(=N)N)NC(=O)CC[C@H](NC(=O)CCCCCCCCCCCCCCCCCCC(=O)O)C(=O)O)C(=O)N[C@@H](CC(N)=O)C(=O)N[C@@H]([C@@H](C)O)C(=O)N[C@@H](C)C(=O)N[C@@H]([C@@H](C)O)C(=O)N1)[C@@H](C)O)C(=O)N[C@@H](CC(C)C)C(=O)N1CCC[C@H]1C(=O)N1CCC[C@H]1C(=O)N[C@H](C(=O)N[C@@H](CC(N)=O)C(=O)N[C@H](C(=O)NCC(=O)N[C@@H](CO)C(=O)N[C@@H](CC(N)=O)C(=O)N[C@H](C(=O)N[C@@H](Cc1ccc(O)cc1)C(N)=O)[C@@H](C)O)C(C)C)[C@@H](C)O` [Example 20, N-alpha-[(S)-4-Carboxy-4-(19-carboxynonadecanoylamino)butyryl]-Arg-[Ser17]-pramlintide] ({C20 diacid-γGlu}-RKCNTATCATQRLANFLSHSSNNFGPILPPTNVGSNTY-NH2; disulfide 3-8) are 0.1 nM, 41 h and 10 h.
For the compound `CC[C@H](C)[C@H](NC(=O)[C@@H]1CCCN1C(=O)CNC(=O)[C@H](Cc1ccccc1)NC(=O)[C@H](CC(N)=O)NC(=O)[C@H](CC(N)=O)NC(=O)[C@H](CO)NC(=O)[C@H](CO)NC(=O)[C@H](Cc1c[nH]cn1)NC(=O)[C@H](CCCNC(=N)N)NC(=O)[C@H](CC(C)C)NC(=O)[C@H](Cc1ccccc1)NC(=O)[C@H](CC(N)=O)NC(=O)[C@H](C)NC(=O)[C@H](CC(C)C)NC(=O)[C@H](CCCNC(=N)N)NC(=O)[C@H](CCC(N)=O)NC(=O)[C@@H](NC(=O)[C@H](C)NC(=O)[C@@H]1CSSC[C@H](NC(=O)[C@H](CCCCN)NC(=O)[C@H](CCCNC(=N)N)NC(=O)CC[C@H](NC(=O)CCCCCCCCCCCCCCCCCCC(=O)O)C(=O)O)C(=O)N[C@@H](CC(N)=O)C(=O)N[C@@H]([C@@H](C)O)C(=O)N[C@@H](C)C(=O)N[C@@H]([C@@H](C)O)C(=O)N1)[C@@H](C)O)C(=O)N[C@@H](CC(C)C)C(=O)N1CCC[C@H]1C(=O)N1CCC[C@H]1C(=O)N[C@H](C(=O)N[C@@H](CC(N)=O)C(=O)N[C@H](C(=O)NCC(=O)N[C@@H](CO)C(=O)N[C@@H](CC(N)=O)C(=O)N[C@H](C(=O)N[C@@H](Cc1ccc(O)cc1)C(N)=O)[C@@H](C)O)C(C)C)[C@@H](C)O` [Example 22, N-alpha-[(S)-4-Carboxy-4-(19-carboxynonadecanoylamino)butyryl]-Arg-[Arg17]-pramlintide] ({C20 diacid-γGlu}-RKCNTATCATQRLANFLRHSSNNFGPILPPTNVGSNTY-NH2; disulfide 3-8), in series [1], the EC50 amounted to 0.1 nM. The half-life in series [2] was 34 h; in series [3], 13 h.
